In general, IC50 refers to the concentration needed to halve the response being measured. Read a low IC50 as greater potency.

In the test the target is Genome polyprotein (dengue virus type 2, UniProt P29990). In kind it is functional, Thailand/16681/1984.
Chain of Genome polyprotein (P29990 1346-1475 limits assumed): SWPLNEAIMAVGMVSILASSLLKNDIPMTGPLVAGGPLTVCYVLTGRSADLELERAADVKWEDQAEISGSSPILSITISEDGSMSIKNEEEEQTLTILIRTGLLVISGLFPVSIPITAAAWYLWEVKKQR
Chain of Genome polyprotein (P29990 1476-2093 limits assumed): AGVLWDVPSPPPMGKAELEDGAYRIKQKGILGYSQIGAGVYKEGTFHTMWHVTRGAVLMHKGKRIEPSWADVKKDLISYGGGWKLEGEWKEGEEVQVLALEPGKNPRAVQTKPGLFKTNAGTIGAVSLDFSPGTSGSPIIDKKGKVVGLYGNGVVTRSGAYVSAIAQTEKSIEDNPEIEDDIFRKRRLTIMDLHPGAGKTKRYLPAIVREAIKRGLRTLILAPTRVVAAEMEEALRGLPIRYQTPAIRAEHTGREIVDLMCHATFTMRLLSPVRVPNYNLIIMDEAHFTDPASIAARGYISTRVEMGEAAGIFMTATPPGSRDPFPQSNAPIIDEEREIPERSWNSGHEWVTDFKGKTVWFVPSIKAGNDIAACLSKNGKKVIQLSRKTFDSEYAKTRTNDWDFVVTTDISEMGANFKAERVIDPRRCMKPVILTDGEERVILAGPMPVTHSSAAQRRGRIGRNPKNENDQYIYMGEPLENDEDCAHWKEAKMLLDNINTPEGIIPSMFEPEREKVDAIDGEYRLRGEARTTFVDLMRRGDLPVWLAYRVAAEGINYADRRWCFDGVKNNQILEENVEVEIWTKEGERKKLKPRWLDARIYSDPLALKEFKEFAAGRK

`NCc1ccc(-c2ncc(OCC3CCNCC3)nc2-c2ccc(-c3ccoc3)cc2)cc1` came in with an IC50 of over 99.5 µM.

Regarding `NCc1ccc(-c2ncc(OCC3CCNCC3)nc2-c2ccc(C3CCOCC3)cc2)cc1`, the IC50 was over 99.5 µM. As to `Cc1cc(Cl)c(C)c(C(=O)O)c1NS(=O)(=O)c1ccc(Oc2ccccc2Cl)cc1`, the IC50 was determined as 36.5 µM. Next, `C[C@@H](C(=O)Nc1cccc(CN)c1)c1ccc(OCc2ccccc2)cc1`: over 99.5 µM.

`NCc1cccc(NC(=O)[C@H](NC(=O)OCc2ccccc2)C(C2CCC2)C2CCC2)c1` registered an IC50 of over 99.5 µM.

The compound `CN1CCN(C2CN(C(=O)c3cc(Br)cc(C=O)c3)C2)CC1` gave an IC50 of over 99.5 µM. Next, `O=C(O)c1cc(Cl)ccc1CS(=O)(=O)c1ccc(Oc2ccccc2Cl)cc1`: over 99.5 µM. For `CC(C)(C)OC(=O)NCc1cccc(NC(=O)[C@@H](NC(=O)OCc2ccccc2)c2ccc(O)cc2)c1` the value was over 99.5 µM; for `Cc1cc(C(=O)O)c(NS(=O)(=O)c2ccc(Oc3ccccc3Cl)cc2)cc1F`, 8.69 µM; for `O=S(=O)(Nc1ccc(Cl)cc1CO)c1ccc(Oc2ccccc2Cl)cc1`, 78.8 µM. On to `CN1CCN(C2CCN(C(=O)c3cc(C=O)n(C)c3)CC2)CC1`, for which the IC50 is over 99.5 µM. The compound `CCn1cc(-c2ccccc2)nc(N2CC[C@@H](CO)C2)c1=O` displayed an IC50 of over 99.5 µM. For `Cn1cc(C(=O)O)c(NS(=O)(=O)c2ccc(Oc3ccccc3Cl)cc2)n1` the value was over 99.5 µM; for `Cn1nccc1-c1ccc([C@@H](NC(=O)OCc2ccccc2)C(=O)Nc2cccc(CN)c2)cc1`, over 99.5 µM; for `NCc1cccc(NC(=O)[C@@H](NC(=O)OCc2ccccc2)c2c(F)cccc2F)c1`, over 99.5 µM. Compound `c1ccc2c(CN3CCC(c4nn[nH]n4)CC3)c[nH]c2c1` registered an IC50 of over 99.5 µM.

Compound `Cc1cnn(-c2cc(C(=O)O)c(NS(=O)(=O)c3ccc(Oc4ccccc4Cl)cc3)cc2F)c1` came in with an IC50 of 6.2 µM. `COC(=O)c1cc(Cl)ccc1NS(=O)(=O)c1ccc(O)cc1` had an IC50 of over 99.5 µM. For `CCn1cc(Cl)nc(N2CC[C@@H](CO)C2)c1=O` the value was over 99.5 µM; for `NC(=O)[C@H](c1c[nH]c2ccccc12)N1CCC(c2cnc3ccc[nH]c2-3)CC1`, over 99.5 µM; for `CCn1cc(-c2cnn(C)n2)nc(N2CC[C@@H](CO)C2)c1=O`, over 99.5 µM. Next, `O=C(O)c1cc(Cl)cc(NS(=O)(=O)c2ccc(Oc3ccccc3Cl)cc2)c1`: over 99.5 µM; `O=C(O)c1cc(OC2CCOCC2)c(F)cc1NS(=O)(=O)c1ccc(Oc2ccccc2Cl)cc1`: 13.7 µM; `OC[C@H]1CCN(c2cncc(N3CCOCC3)n2)C1`: over 99.5 µM.

In turn, `CCOc1cccc(N2CC[C@@H](CO)C2)c1` came in with an IC50 of over 99.5 µM. In turn, `NCc1cccc(NC(=O)[C@@H](NC(=O)OCc2ccccc2)c2cccc(Br)c2)c1` came in with an IC50 of 85.8 µM. As for `N#Cc1cc(F)cc(N2CC[C@H](CO)C2)c1`, the IC50 was over 99.5 µM.

In turn, `CC(C)Oc1cncc(N2CC[C@@H](CO)C2)c1` showed an IC50 of over 99.5 µM. Compound `O=C(O)c1cc(Cl)c(Cl)cc1NS(=O)(=O)c1ccc(Oc2ccccc2Cl)cc1` showed an IC50 of 6.6 µM. Compound `CCn1cc(-c2cnn(-c3ccccc3)c2)nc(N2CC[C@@H](CO)C2)c1=O` yielded an IC50 of over 99.5 µM.

`Cn1cc(NS(=O)(=O)c2ccc(Oc3ccccc3Cl)cc2)c(C(=O)O)n1` returned an IC50 of over 99.5 µM. Next, `O[C@@H]1CN(Cc2c[nH]c3ccccc23)C[C@H]1c1c[nH]c2ccccc12`: over 99.5 µM.

`Cc1cnc(Oc2ccc(S(=O)(=O)Nc3ccc(Cl)cc3C(=O)O)cc2)cn1` yielded an IC50 of over 99.5 µM. Next, `CCn1cc(-c2ccnc(C)c2)nc(N2CC[C@@H](CO)C2)c1=O`: over 99.5 µM; `NCc1cccc(NC(=O)[C@H](NC(=O)OCc2ccccc2)c2ccc(OCc3ccccc3)cc2)c1`: 8.05 µM; `O=C(O)c1cc(Cl)ccc1NS(=O)(=O)c1ccc(Oc2ccccc2Cl)nc1`: 46.9 µM. `Cc1cc(C)c(C(=O)N2C[C@H]3CN(C)CC[C@@]3(CO)C2)cc1C=O` came in with an IC50 of over 99.5 µM. For `O=C(O)c1cc(Oc2ccc(F)cc2)c(F)cc1NS(=O)(=O)c1ccc(Oc2ccccc2Cl)cc1` the value was 3.76 µM; for `CCn1ccc(-c2ccc([C@@H](NC(=O)OCc3ccccc3)C(=O)Nc3cccc(CN)c3)cc2)n1`, over 99.5 µM; for `COC(=O)c1cc(Cl)ccc1NS(=O)(=O)c1ccc(Br)cc1`, over 99.5 µM.

Turning to `CN(C)C[C@@]1(O)CCN(C(=O)c2cc(C=O)c[nH]2)C1`, the IC50 is over 99.5 µM. For `O=C(O)c1c(NS(=O)(=O)c2ccc(Oc3ccccc3Cl)cc2)ccc(Cl)c1F` the value was 18.1 µM. For `COC(=O)c1cc(Cl)ccc1NS(=O)(=O)c1ccc(Oc2ccccc2Cl)nc1` the value was over 99.5 µM; for `COC(=O)[C@@H]1CC2(CC[C@@H]1NS(=O)(=O)c1ccc(Oc3ccccc3Cl)cc1)CC2`, over 99.5 µM; for `CCn1cc(C(=O)NC)nc(N2CC[C@@H](CO)C2)c1=O`, over 99.5 µM. For `NCc1cccc(CNC(=O)[C@H](NC(=O)OCc2ccccc2)c2ccc(OCc3ccccc3)cc2)c1` the value was 15.3 µM; for `CCn1cc(C#N)nc(N2CC[C@@H](CO)C2)c1=O`, over 99.5 µM. For `NCc1cccc(N2CCN(C(=O)OCc3ccccc3)[C@H](c3ccc(OCc4ccccc4)cc3)C2=O)c1`, the IC50 was found to be 74.7 µM. Next, `NCc1cccc(NC(=O)[C@]2(NC(=O)OCc3ccccc3)CCOc3ccccc32)c1`: over 99.5 µM.

The compound `O=C(O)c1cc(Cl)ccc1NS(=O)(=O)c1ccc(N[C@H]2CCOC2)nc1` displayed an IC50 of over 99.5 µM.

In turn, `NCc1cccc(NC(=O)[C@@H](NC(=O)OCc2ccccc2)c2ccc(-c3ccccc3F)cc2)c1` came in with an IC50 of 10.4 µM. `COc1cc(Cl)cc(C(=O)O)c1NS(=O)(=O)c1ccc(Oc2ccccc2Cl)cc1` had an IC50 of 22.6 µM. For `NCc1cc(Cl)ccc1NS(=O)(=O)c1ccc(Oc2ccccc2Cl)cc1` the value was over 99.5 µM; for `O=C(NCC1CC1)c1cc(Cl)cc(NS(=O)(=O)c2ccc(Oc3ccccc3Cl)cc2)c1`, 23.5 µM; for `NCc1cccc(NC(=O)CN2CCN(C(=O)OCc3ccccc3)CC2)c1`, over 99.5 µM. As to `O=C(NCC(F)(F)F)c1cc(Cl)c(F)cc1NS(=O)(=O)c1ccc(Oc2ccccc2Cl)cc1`, the IC50 turned out to be 5.18 µM. Regarding `NCc1cccc(NC(=O)CN(C(=O)OCc2ccccc2)c2ccc(OCc3ccccc3)cc2)c1`, the IC50 came out at 34.9 µM. `CCn1cc(-c2cc(F)ccc2C)nc(N2CC[C@@H](CO)C2)c1=O` returned an IC50 of over 99.5 µM. For `O=C(NCc1cc(Cl)ccc1NS(=O)(=O)c1ccc(Oc2ccccc2Cl)cc1)C1CC1` the value was over 99.5 µM. In the case of `NCc1cccc(NC(=O)[C@H](NC(=O)OCc2ccccc2)C2CCCCC2)c1`, the IC50 was over 99.5 µM. Turning to `CN(c1ncnc(-c2ccsc2C=O)n1)C1CCNCC1`, the IC50 is over 99.5 µM. For `O=C(O)c1ccsc1NS(=O)(=O)c1ccc(Oc2ccccc2Cl)cc1` the value was 20.1 µM; for `NCc1cccc(NC(=O)c2cc(OCc3ccccc3)ccc2CNC(=O)OCc2ccccc2)c1`, 24.8 µM; for `O=C(O)c1cc(Cl)ccc1S(=O)(=O)Nc1ccc(Oc2ccccc2Cl)cc1`, 16.8 µM. For `O=C(O)[C@@H]1CCCC[C@H]1NS(=O)(=O)c1ccc(Oc2ccccc2Cl)cc1` the value was over 99.5 µM; for `O=C(O)c1cc(F)c(F)cc1NS(=O)(=O)c1ccc(Oc2ccccc2Cl)cc1`, 11.2 µM; for `C[C@@H](NC(=O)c1ccc2[nH]cc(C=O)c2c1)C1=CCN(C)CC1`, over 99.5 µM. As to `CCc1ccc(-c2cn(CC)c(=O)c(N3CC[C@@H](CO)C3)n2)s1`, the IC50 was over 99.5 µM. For `O=C(O)c1nscc1NS(=O)(=O)c1ccc(Oc2ccccc2Cl)cc1` the value was 63.2 µM; for `OC[C@H]1CCN(c2ccnc(C(F)F)c2)C1`, over 99.5 µM. `C[C@H]1CN(C(=O)Cc2ccc(C=O)[nH]2)CCN1C1CCCC1`: the IC50 is over 99.5 µM.

For `CCn1cc(-c2cnccc2C)nc(N2CC[C@@H](CO)C2)c1=O`, the IC50 was over 99.5 µM.

For `O=C(O)c1cc(NS(=O)(=O)c2ccc(Oc3ccccc3Cl)cc2)ccc1Cl`, the IC50 was over 99.5 µM. For `O=C(O)c1cscc1NS(=O)(=O)c1ccc(Oc2ccccc2Cl)cc1`, inhibition was half-maximal at 34.1 µM (IC50). Compound `CCn1ccnc(N2C[C@@H](OC(=O)OC)[C@H](c3c[nH]c4ccccc34)C2)c1=O` yielded an IC50 of over 99.5 µM. Regarding `Cc1cccc([C@@H](NC(=O)OCc2ccccc2)C(=O)Nc2cccc(CN)c2)n1`, the 50% inhibitory concentration (IC50) is over 99.5 µM. Compound `CC1(C)CCC([C@@H](NC(=O)OCc2ccccc2)C(=O)Nc2cccc(CN)c2)CC1` came in with an IC50 of over 99.5 µM. For `Cn1cc(CN2CCC(c3c[nH]c4cccnc34)CC2)c2ccccc21` the value was over 99.5 µM; for `O=C(O)CN(c1ccc(Cl)cc1)S(=O)(=O)c1ccc(Oc2ccccc2Cl)cc1`, 86.6 µM; for `CC(C)(C)OC(=O)NCc1cccc(NC(=O)[C@@H](NC(=O)OCc2ccccc2)c2cccc(O)c2)c1`, over 99.5 µM. For `Cc1cc(C=O)c(C)n1-c1cccc(C(=O)N2CCN(C)CC2)c1` the value was over 99.5 µM; for `O=Cc1ccc(CC(=O)N2C[C@@H](O)[C@H](N3CCOCC3)C2)cc1`, over 99.5 µM. For `Cc1nccnc1Oc1ccc(S(=O)(=O)Nc2ccc(Cl)cc2C(=O)O)cc1` the value was over 99.5 µM; for `NCc1cccc(NC(=O)C2(CNC(=O)OCc3ccccc3)CCCC2)c1`, over 99.5 µM; for `COc1cc(NS(=O)(=O)c2ccc(Oc3ccccc3Cl)cc2)c(C(=O)O)cc1Cl`, 8.67 µM. In turn, `O=C(O)c1cc(Cl)ccc1NS(=O)(=O)c1ccc(OCc2ncccn2)cc1` gave an IC50 of over 99.5 µM. Next, `Cc1cc(C(=O)N[C@@H]2CC[C@@H]3CN(C)C[C@@H]32)sc1C=O`: over 99.5 µM; `NC(=O)c1ccc(N2CC[C@@H](CO)C2)cc1`: over 99.5 µM; `Cc1ncc(-c2ccc([C@@H](NC(=O)OCc3ccccc3)C(=O)Nc3cccc(CN)c3)cc2)s1`: 29.4 µM. For the compound `O=C(NCC1CC1)[C@H]1CCCC[C@H]1NS(=O)(=O)c1ccc(Oc2ccccc2Cl)cc1`, the IC50 was over 99.5 µM. Next, `OC[C@H]1CCN(c2cnc3ccccc3n2)C1`: over 99.5 µM. For `CCn1ccnc(N2C[C@H](c3c[nH]c4ccccc34)[C@H](OC(C)=O)C2)c1=O` the value was over 99.5 µM.

Source of the values: ChEMBL document CHEMBL5604063, “ASAP - DENV-2 NS2B-NS3 protease fluorescence dose response” (2024).
